In patent US20210198277A1, “AMINE-SUBSTITUTED ARYL OR HETEROARYL COMPOUNDS” (Epizyme, Inc., priority 2016, published 2021):

Tests used:
human EHMT2 913-1193 = biological target: T1, human EHMT2 913-1193 (Homo sapiens, UniProt Q96KQ7); experiment: EHMT2 enzyme assay on histone peptide substrate (EHMT2 PEP); type: biochemical; settings: Table III; read-out: EHMT2 PEP (IC50 μM)
T1 construct: recombinant purified human EHMT2 913-1193, Viva; purchased Viva
T1 sequence (Q96KQ7 913-1193): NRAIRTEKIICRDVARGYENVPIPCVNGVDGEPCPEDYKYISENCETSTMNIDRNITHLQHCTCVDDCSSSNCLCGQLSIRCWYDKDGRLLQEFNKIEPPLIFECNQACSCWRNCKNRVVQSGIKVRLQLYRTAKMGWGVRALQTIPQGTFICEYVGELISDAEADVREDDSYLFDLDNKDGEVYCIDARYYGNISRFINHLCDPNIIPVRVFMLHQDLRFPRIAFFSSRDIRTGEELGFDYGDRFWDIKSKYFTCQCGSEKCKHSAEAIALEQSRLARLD
Summary of the method: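 Radiometric methyltransferase assay: 0.031 nM EHMT2 913-1193 preincubated 30 min with compound (10-point 3-fold series, top final 50 μM, 2% DMSO) in 20 mM Bicine pH 7.5, 1 mM TCEP. Biotinylated histone peptide methylated with ^3H-SAM for 60 min at room temperature, quenched with unlabeled SAM, captured on streptavidin Flashplates and counted.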

EHMT1 = biological target: T2, EHMT1 (Homo sapiens, UniProt Q9H9B1); experiment: EHMT1 enzyme assay on peptide substrate (EHMT1 PEP); type: biochemical; settings: Table III; read-out: EHMT1 PEP (IC50 μM)
T2 sequence (Q9H9B1 1-1298): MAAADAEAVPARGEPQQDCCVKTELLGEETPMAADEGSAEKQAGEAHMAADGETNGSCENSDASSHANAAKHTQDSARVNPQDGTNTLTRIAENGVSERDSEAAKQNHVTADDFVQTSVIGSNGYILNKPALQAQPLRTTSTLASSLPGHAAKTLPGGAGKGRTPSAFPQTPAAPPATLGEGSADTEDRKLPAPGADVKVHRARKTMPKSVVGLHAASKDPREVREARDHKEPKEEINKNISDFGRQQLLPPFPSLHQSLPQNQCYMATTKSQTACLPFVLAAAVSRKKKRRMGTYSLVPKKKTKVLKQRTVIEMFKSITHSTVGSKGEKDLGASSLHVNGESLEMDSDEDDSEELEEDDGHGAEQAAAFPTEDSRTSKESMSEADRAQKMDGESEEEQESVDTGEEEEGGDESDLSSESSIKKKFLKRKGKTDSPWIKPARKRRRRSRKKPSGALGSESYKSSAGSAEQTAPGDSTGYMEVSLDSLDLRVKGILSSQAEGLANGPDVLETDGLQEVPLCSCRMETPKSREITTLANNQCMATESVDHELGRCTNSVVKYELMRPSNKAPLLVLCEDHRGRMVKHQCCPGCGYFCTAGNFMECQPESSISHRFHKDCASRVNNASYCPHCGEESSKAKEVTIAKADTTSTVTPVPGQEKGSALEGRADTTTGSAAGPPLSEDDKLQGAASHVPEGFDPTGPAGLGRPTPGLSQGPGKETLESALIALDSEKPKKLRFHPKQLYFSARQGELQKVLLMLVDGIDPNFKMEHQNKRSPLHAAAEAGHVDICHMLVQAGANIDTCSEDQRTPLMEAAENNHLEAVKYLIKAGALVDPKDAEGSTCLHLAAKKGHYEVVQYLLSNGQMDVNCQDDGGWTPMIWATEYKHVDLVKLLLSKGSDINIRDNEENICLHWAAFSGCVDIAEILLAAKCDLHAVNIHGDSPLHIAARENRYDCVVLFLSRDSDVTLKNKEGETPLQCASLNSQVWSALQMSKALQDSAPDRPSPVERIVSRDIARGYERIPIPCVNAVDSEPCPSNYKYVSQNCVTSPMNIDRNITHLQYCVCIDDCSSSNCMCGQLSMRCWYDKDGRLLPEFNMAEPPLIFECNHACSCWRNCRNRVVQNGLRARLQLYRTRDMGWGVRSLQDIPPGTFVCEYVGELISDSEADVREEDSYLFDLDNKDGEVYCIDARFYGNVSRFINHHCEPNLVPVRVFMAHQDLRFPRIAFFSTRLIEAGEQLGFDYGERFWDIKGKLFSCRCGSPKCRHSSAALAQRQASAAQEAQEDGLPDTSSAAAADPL

| IC50 (human EHMT2 913-1193) | IC50 (EHMT1) | SMILES |
| --- | --- | --- |
| > 10 µM | > 10 µM | CNc1ccnc(Nc2ccc(OC)c(OC[C@@H]3CN(C)C[C@H]3C)c2)n1 (single isomer, unassigned) [Compound 438] |
| 0.1 to 1 µM | 0.1 to 1 µM | CNc1ccnc(Nc2ccc(OC)c(OC[C@H]3CN(C)C[C@@H]3C)c2)n1 (single isomer, unassigned) [Compound 439] |
| > 10 µM | > 10 µM | CNc1ccnc(Nc2cccc(COCCN3CCCC3)n2)c1 [Compound 267, N^4-methyl-N^2-(6-((2-(pyrrolidin-1-yl)ethoxy)methyl)pyridin-2-yl)pyridine-2,4-diamine] |
| > 10 µM | > 10 µM | CNc1cc(Nc2cccc(COCCN3CCCC3)n2)ccn1 [Compound 268, N^2-methyl-N^4-(6-((2-(pyrrolidin-1-yl)ethoxy)methyl)pyridin-2-yl)pyridine-2,4-diamine] |
| < 0.1 µM | < 0.1 µM | CNc1nc(C2CCN(C)CC2)c2cc(OC)c(OCCCN3CCCC3)cc2n1 [Compound 270] |
| 1 to 10 µM | 0.1 to 1 µM | CNc1ccnc(Nc2ccc(OC)c(OCCCN3CC[C@H](F)C3)c2)n1 [Compound 271] |
| 0.1 to 1 µM | 1 to 10 µM | CNc1cc(Nc2ccc(OC)c(OCCCN3CCCC3)c2)ncc1F [Compound 272, 5-fluoro-N^2-(4-methoxy-3-(3-(pyrrolidin-1-yl)propoxy)phenyl)-N^4-methylpyridine-2,4-diamine] |
| > 10 µM | > 10 µM | CNc1cc(Nc2ccc(OC)c(OCCCN3CCCC3)c2)cc(C(F)(F)F)n1 [Compound 273] |
| 1 to 10 µM | 1 to 10 µM | CNc1ccnc(Nc2cccc(N3CCC(N)C3=O)c2)n1 (stereo not drawn) [Compound 274] |
| > 10 µM | > 10 µM | CNc1ccnc(Nc2cccc(N3CCC(N(C)C)C3=O)c2)n1 (stereo not drawn) [Compound 275] |
| > 10 µM | 1 to 10 µM | CNc1ccnc(Nc2cccc(OCC(F)CN3CCCC3)c2)n1 (stereo not drawn) [Compound 276, N^2-(3-(2-fluoro-3-(pyrrolidin-1-yl)propoxy)phenyl)-N^4-methylpyrimidine-2,4-diamine] |
| > 10 µM | > 10 µM | CNc1ccnc(Nc2cccc(OCC(F)(F)CN3CCCC3)c2)n1 [Compound 277, N^2-(3-(2,2-difluoro-3-(pyrrolidin-1-yl)propoxy)phenyl)-N^4-methylpyrimidine-2,4-diamine] |
| < 0.1 µM | < 0.1 µM | COc1ccc(Nc2nccc(NCC3CC(C)(C)NC(C)(C)C3)n2)cc1OCCCN1CCCC1 [Compound 278] |
| > 10 µM | > 10 µM | CNc1ccnc(Nc2cccc(C(C)OCCN3CCCC3)c2)n1 (stereo not drawn) [Compound 279, N^4-methyl-N^2-(3-(1-(2-(pyrrolidin-1-yl)ethoxy)ethyl)phenyl) pyrimidine-2,4-diamine] |
| 1 to 10 µM | 1 to 10 µM | CCN(CC)CCCOc1cc(Nc2nccc(NC)n2)ccc1OC [Compound 280, N^2-(3-(3-(diethylamino)propoxy)-4-methoxyphenyl)-N^4-methylpyrimidine-2,4-diamine] |
| > 10 µM | > 10 µM | CNc1ccnc(Nc2ccc(OC)c(OCCCN3CCC(S(C)(=O)=O)C3)c2)n1 (stereo not drawn) [Compound 282] |

| IC50 (human EHMT2 913-1193) | IC50 (EHMT1) | SMILES |
| --- | --- | --- |
| < 0.1 µM | < 0.1 µM | CNc1ccnc(Nc2ccc(OC)c(OCCCN3CCC(OC)C3)c2)n1 (stereo not drawn) [Compound 283, N^2-(4-methoxy-3-(3-(3-methoxypyrrolidin-1-yl)propoxy)phenyl)-N^4-methylpyrimidine-2,4-diamine] |
| > 10 µM | > 10 µM | CNc1ccnc(Nc2ccc(OC)c(OCCCN3CCC4(COC4)C3)c2)n1 [Compound 284] |
| > 10 µM | > 10 µM | CNc1ccnc(Nc2ccc(OC)c(OCCCN3CCC(C(F)(F)F)C3)c2)n1 (stereo not drawn) [Compound 285, N^2-(4-methoxy-3-(3-(3-(trifluoromethyl)pyrrolidin-1-yl)propoxy)phenyl)-N^4-methylpyrimidine-2,4-diamine] |
| < 0.1 µM | 0.1 to 1 µM | CNc1ccnc(Nc2ccc(OC)c(OCCCN3CCC(O)C3)c2)n1 (stereo not drawn) [Compound 286, 1-(3-(2-methoxy-5-((4-(methylamino)pyrimidin-2-yl)amino)phenoxy)propyl)pyrrolidin-3-ol] |
| > 10 µM | > 10 µM | CNc1ccnc(Nc2ccc(OC)c(OCCCN3CCC(C#N)C3)c2)n1 (stereo not drawn) [Compound 287, 1-(3-(2-methoxy-5-((4-(methylamino)pyrimidin-2-yl)amino)phenoxy)propyl)pyrrolidine-3-carbonitrile] |
| 0.1 to 1 µM | 0.1 to 1 µM | CNc1ccnc(Nc2ccc(OC)c(OCCC3CCCN3C)c2)n1 (stereo not drawn) [Compound 288, N^2-(4-methoxy-3-(2-(1-methylpyrrolidin-2-yl)ethoxy)phenyl)-N^4-methylpyrimidine-2,4-diamine] |
| 0.1 to 1 µM | < 0.1 µM | CNc1ccnc(Nc2ccc(OC)c(OCC3CCCN3C)c2)n1 (stereo not drawn) [Compound 289, N^2-(4-methoxy-3-((1-methylpyrrolidin-2-yl)methoxy)phenyl)-N^4-methylpyrimidine-2,4-diamine] |
| 0.1 to 1 µM | 0.1 to 1 µM | CNc1ccnc(Nc2ccc(OC)c(OCCCN3CCCC3C)c2)n1 (stereo not drawn) [Compound 290, N^2-(4-methoxy-3-(3-(2-methylpyrrolidin-1-yl)propoxy)phenyl)-N^4-methylpyrimidine-2,4-diamine] |
| > 10 µM | > 10 µM | CCNC(=O)c1cc(Nc2nccc(NC)n2)ccn1 [Compound 291, N-ethyl-4-((4-(methylamino)pyrimidin-2-yl)amino)picolinamide] |
| 1 to 10 µM | 0.1 to 1 µM | CNc1ccnc(Nc2ccc(OC)c(OCCCN3CCC(C)C3)c2)n1 (stereo not drawn) [Compound 293, N^2-(4-methoxy-3-(3-(3-methylpyrrolidin-1-yl)propoxy)phenyl)-N^4-methylpyrimidine-2,4-diamine] |
| > 10 µM | > 10 µM | CNc1ccnc(Nc2cccc3oc(CCN(C)C)nc23)n1 [Compound 295] |
| > 10 µM | > 10 µM | CNc1ccnc(Nc2cccc(N3CC(N)CC3=O)c2)n1 (stereo not drawn) [Compound 296] |
| 1 to 10 µM | > 10 µM | CNc1ccnc(Nc2cccc(N3CCC(N)C3)c2)n1 (stereo not drawn) [Compound 297] |
| < 0.1 µM | < 0.1 µM | CNc1ccnc(Nc2ccc(OC)c(OCCCN3CC4CC4C3)c2)n1 (stereo not drawn) [Compound 298, N^2-(3-(3-(3-azabicyclo[3.1.0]hexan-3-yl)propoxy)-4-methoxyphenyl)-N^4-methylpyrimidine-2,4-diamine] |
| < 0.1 µM | < 0.1 µM | CNc1ccnc(Nc2ccc(OC)c(OC[C@H](O)CN3CCCC3)c2)n1 [Compound 299, (R)-1-(2-methoxy-5-((4-(methylamino)pyrimidin-2-yl)amino)phenoxy)-3-(pyrrolidin-1-yl)propan-2-ol] |
| 0.1 to 1 µM | 0.1 to 1 µM | CNc1ccnc(Nc2ccc(OC)c(OC[C@@H](O)CN3CCCC3)c2)n1 [Compound 300, (S)-1-(2-methoxy-5-((4-(methylamino)pyrimidin-2-yl)amino)phenoxy)-3-(pyrrolidin-1-yl)propan-2-ol] |

| SMILES | IC50 (human EHMT2 913-1193) | IC50 (EHMT1) |
| --- | --- | --- |
| CNc1cc(C)nc(Nc2ccc(OC)c(O[C@H]3C[C@@H](N(C)C)C3)c2)n1 (single isomer, unassigned) [Compound 317, N^2-(3-((1s,3s)-3-(dimethylamino)cyclobutoxy)-4-methoxyphenyl)-N^4,6-dimethylpyrimidine-2,4-diamine] | 1 to 10 µM | > 10 µM |
